Test [1] concerns androgenic alopecia. The settings on record: 1 milligram per day, 24 months, 100 men; cited from earlier work.
For test [2], the system named is hair growth. As to conditions: normal shaved mice, after about 20 days; cited from earlier work.
Test [3] deals with T1, 5α-Reductase Type 2 (Homo sapiens, UniProt P31213).
T1 sequence (P31213 1-254): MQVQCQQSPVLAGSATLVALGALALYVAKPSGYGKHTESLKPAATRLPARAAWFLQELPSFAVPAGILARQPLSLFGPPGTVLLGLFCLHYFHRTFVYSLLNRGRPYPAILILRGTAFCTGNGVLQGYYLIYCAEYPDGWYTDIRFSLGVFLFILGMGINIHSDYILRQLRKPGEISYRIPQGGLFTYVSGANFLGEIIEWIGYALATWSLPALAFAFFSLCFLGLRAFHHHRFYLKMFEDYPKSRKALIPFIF
In words: inhibition of 5α-Reductase Type 2 enzyme (Inhibition Experiments 1 and 2). The class given is biochemical. The source says: (§1) The different free fatty acids of medium and long saturated chains and long unsaturated chains are shown, together with esterified fatty acids, oxidized fatty acids, fatty alcohols, phytosterols, and other components. The magnitude of the activity is designated by “none,” “moderate” or “very active” (FIG. 3). The various constituents shown in the table of FIG. 2 are also shown and listed as free fatty acid molecules with: a) medium, saturated chains, b) long, saturated chains, and c) long unsaturated chains. There are esterified fatty acids, oxidized fatty acids, and fatty alcohols. These tables support other evidence that the five active free fatty acids for prostate and hair health are lauric, myristic, oleic, linoleic and linolenic free fatty acids.
Data are shown in the graphs and bar charts of FIGS. 5 and 6 where data are reported as the effectiveness to inhibit enzyme activity (IC50). […]
Inhibition Experiment 2 shown in FIG. 6 determined the possible impact of Permixon® product matrix (PEG) on an in vitro assay and the pegylated and conventional ultra-high purity supercritical CO2 extract having the PEG matrix (U4602-PEG) was compared to the commercially available Permixon® and the conventional unpegylated product (U4602) for their ability to inhibit the 5α-Reductase 2 enzyme. […]

Test [4] addresses T2, 5α-Reductase Type 1 (Homo sapiens, UniProt P18405).
T2 sequence (P18405 1-259): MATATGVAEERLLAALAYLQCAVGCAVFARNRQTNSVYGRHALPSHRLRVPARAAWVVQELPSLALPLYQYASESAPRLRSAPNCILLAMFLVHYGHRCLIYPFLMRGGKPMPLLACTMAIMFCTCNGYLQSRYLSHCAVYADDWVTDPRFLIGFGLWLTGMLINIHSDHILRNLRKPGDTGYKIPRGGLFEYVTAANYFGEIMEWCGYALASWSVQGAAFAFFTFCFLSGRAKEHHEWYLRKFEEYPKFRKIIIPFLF
The test can be described thus: inhibition of 5α-Reductase Type 1 enzyme. The class given is biochemical.
Excerpt: as §1
Reference is now made to FIGS. 7B and 7C showing the use of a supercritical CO2 extracted LSESr and Permixon®.

As for `CC(C)(C)NC(=O)[C@H]1CC[C@H]2[C@@H]3CC[C@H]4NC(=O)C=C[C@]4(C)[C@H]3CC[C@]12C` [finasteride], the “men who noted an improvement” value in test [1] is listed as 68%.
For the compound `CCCCC/C=C\C/C=C\CCCCCCCC(=O)O` [linoleic acid], in test [2], the hair growth entry is “about 100%”. Besides, the “effectiveness for 5α-Reductase-2 (in words)” value in test [3] is “beneficial for both”.
Take `CCCCCCCC/C=C\CCCCCCCC(=O)O` [oleic acid]: the “effectiveness for 5α-Reductase-1 (in words)” value in test [4] was “especially effective”. The “effectiveness for 5α-Reductase-2 (in words)” value in test [3] was “not as much”.

The values above are taken from patent publication US12648983B2 (U.S. NUTRACEUTICALS, INC., priority 2021, dated 2026).
